Source: US11492386B2, “Parathyroid hormone-anti-RANKL antibody fusion compounds” (Eli Lilly and Company, priority 2016, dated 2022)

Tested on: orchidectomized murine model
Assay: In vivo efficacy (BMD and BMC by qCT) in orchidectomized murine model
Parameters: species or system mice
Conditions: 5 μg/kg daily sc, two weeks
Protocol: Effects on bone mass density and bone mineral content, in vivo, are assessed using an orchidectomized murine model. Sixteen week old […] C57/B6 mice (Harlan, Indianapolis, Ind.) are orchidectomized (or vehicle control group, n=6) and maintained on a 12 hour light/dark cycle at 22° C. with ad lib access to food (TD 2014 with 0.72% Ca and 0.61% P, Vit. D 0.99 IU/g, Teklad, Madison, Wis.) and water. Osteopenia is established in the orchidectomized mice by allowing mice to lose bone mass for a six-week period.
Following a six-week osteopenia-establishing period, mice are divided into treatment groups and a vehicle PBS control group. […]
Bone mass density (BMD) of distal femur and bone mineral content (BMC) of lumbar vertebra are assessed by quantitative computed tomography (qCT) using Aloka LaTheta LTC-100 model CT scanner. […]

Q: What does the source list for `CC[C@H](C)[C@H](NC(=O)[C@H](CCC(=O)O)NC(=O)[C@H](CO)NC(=O)[C@@H](NC(=O)[C@@H](N)CO)C(C)C)C(=O)N[C@@H](CCC(N)=O)C(=O)N[C@@H](CC(C)C)C(=O)N[C@@H](CCSC)C(=O)N[C@@H](Cc1c[nH]cn1)C(=O)N[C@@H](CC(N)=O)C(=O)N[C@@H](CC(C)C)C(=O)NCC(=O)N[C@@H](CCCCN)C(=O)N[C@@H](Cc1c[nH]cn1)C(=O)N[C@@H](CC(C)C)C(=O)N[C@@H](CC(N)=O)C(=O)N[C@@H](CO)C(=O)N[C@@H](CCSC)C(=O)N[C@@H](CCC(=O)O)C(=O)N[C@@H](CCCNC(=N)N)C(=O)N[C@H](C(=O)N[C@@H](CCC(=O)O)C(=O)N[C@@H](Cc1c[nH]c2ccccc12)C(=O)N[C@@H](CC(C)C)C(=O)N[C@@H](CCCNC(=N)N)C(=O)N[C@@H](CCCCN)C(=O)N[C@@H](CCCCN)C(=O)N[C@@H](CC(C)C)C(=O)N[C@@H](CCC(N)=O)C(=O)N[C@@H](CC(=O)O)C(=O)N[C@H](C(=O)N[C@@H](Cc1c[nH]cn1)C(=O)N[C@@H](CC(N)=O)C(=O)N[C@@H](Cc1ccccc1)C(=O)N[C@H](C(=O)N[C@@H](C)C(=O)N[C@@H](CC(C)C)C(=O)NCC(=O)O)C(C)C)C(C)C)C(C)C` [PTH Peptide, reference compound]?
A: Distal-Femur (% BMD change): 16%; Lumbar Vertebra (% BMC change): 1%
